In patent US9695217B2, “Peptide domains that bind small molecules” (Iowa State University Research Foundation, Inc., priority 2010, dated 2017):
Where two headings read alike, the source gives them in different places.

Key:
[1] = known polyhistidine binding domain, background statement; read-out: molar dissociation constant for nickel; cited from earlier work
[2] = Binding strength measured by surface plasmon resonance (BIACOR 3000, Sensor Chip NTA); settings: read-out: Kd (dissociation constant for nickel), SPR

## YSHHHHHHLAGTA [C26]
[1]
  Kd: 0.023 nM
[2]
  Kd: ~0.023 nM
